Source: patent publication US12629370B2, “Treatment of prostate cancer” (Sumitomo Pharma Co., Ltd., priority 2016, dated 2026)
Several values for one entry are separate records, joined by “and”; a condition that tells them apart may be missing. Equal entries are not always repeated.

Experiments:
FIG. 23 = experiment: FIG. 23
From the text: Table printed on a drawing sheet, FIG. 23
First reader's note: The rows 'Plasma' and 'Urine' are section heads (matrix); the sheet explains neither the footnote marks a and b nor the values in brackets.

[1] = Example 6: plasma concentration of unchanged Compound 1 (LC-MS/MS); format: in vivo, human
Description: Subjects in Cohort 1 received a load dose of 320 mg and a maintenance dose of 80 mg; subjects in Cohort 2 received a load dose of 320 mg and a maintenance dose of 120 mg; subjects in Cohort 3 received a load dose of 320 mg and a maintenance dose of 160 mg; and subjects in Cohort 4 received a load dose of 360 mg and a maintenance dose of 120 mg.
In addition to the safety assessments, efficacy assessments were also performed according to the study schedule, and the Compound 1 formulation was administered until each subject met the discontinuation criteria.

serum testosterone = experiment: Example 7: serum testosterone lowering in healthy men; format: in vivo, human; settings: for mean serum testosterone at end of 16 days: baseline 10.40 nmol/L
Description: FSH, DHT, and insulin-like growth factor 1 (IGF-1; Parts 3 and 4 only) were measured in a subset of samples. Serum testosterone was assayed using a conventional immunoassay for screening (LLOQ=0.4 nmol/L). A validated LC/MS/MS method, with an LLOQ of 0.173 nmol/L and a ULOQ of 10.425 nmol/L, was used for all subsequent baseline (i.e., the subject's serum hormone levels prior to treatment commencing) and postdose measurements.
Pharmacodynamic measures included serum concentrations of testosterone, DHT, LH, and FSH. In Part 2, the number and percentage of subjects with average serum testosterone levels less than 0.69 nmol/L occurring during the second week of dosing were tabulated. In Parts 3 and 4, the number and percentage of subjects with serum testosterone levels consistently less than 0.69 nmol/L from Day 14 through Day 28 were tabulated.

[2] = tested on: patients with advanced prostate cancer; experiment: Example 8: treatment-emergent adverse events (safety population)
Description: The core tablets were coated with a film coating comprising hypromellose 2910 (21.36 mg), titanium dioxide (2.4 mg), and red ferric oxide (0.06 mg).
For patients receiving leuprolide acetate (leuprorelin), on-treatment study visits occurred at baseline (day 1, week 1), day 1 of weeks 2, 3, and 5, and then every 4 weeks until week 25, and then at 12 week intervals (week 37 and 49). Patients on leuprorelin received their final injection at week 37, day 1, and the week 49, day 1 visit was considered the end of leuprorelin exposure. Patients receiving leuprorelin at visits at 16 (EOT), 20 (follow-up visit), and 24 (EOS) weeks after the last leuprorelin injection.
Efficacy and safety analyses were conducted using a safety population (received ≥1 dose of study drug). […] Safety was assessed by recording the incidence, severity, and types of treatment-emergent adverse events; by physical examination (including slit lamp examination of the anterior eye); and by evaluating changes from baseline in weight, vital signs, 12-lead electrocardiogram (ECG), and clinical laboratory parameters. […] Adverse events were coded using the Medical Dictionary for Regulatory Activities version 19.0 and graded according to National Cancer Institute Common Terminology Criteria version 4.03 (Tables 7 and 8). Safety-related haematology, chemistry, and urinalysis measurements were taken at each study visit and analysed at a central laboratory (LabCorp). Phospholipidosis was assessed as part of the safety assessments.

Compound: CONC(=O)Nc1ccc(-c2sc3c(c2CN(C)C)c(=O)n(-c2ccc(OC)nn2)c(=O)n3Cc2c(F)cccc2F)cc1 [Compound 1, N-(4-(1-(2,6-difluorobenzyl)-5-((dimethylamino)methyl)-3-(6-methoxy-3-pyridazinyl)-2,4-dioxo-1,2,3,4-tetrahydrothieno[2,3-d]pyrimidin-6-yl)phenyl)-N′-methoxyurea]
- CLr (L/h) (FIG. 23): 6.92 (29.5) L/h and 5.51 (26.7) L/h and 6.42 (25.0) L/h and 7.66 (17.4) L/h and 7.43 (16.2) L/h
- Fe (%) (FIG. 23): 1.44 (31.8) % and 1.35 (40.0) % and 1.76 (38.6) % and 1.89 (20.2) % and 2.88 (45.6) %
- t1/2(h) (FIG. 23): 50.6 (20.2) h and 49.4 (30.6) h and 36.5 (17.4) h
- median Tmax ([1]; Part A Day 1, load dose 320 mg, across cohorts): 1.5 h
- mean Cmax, Ctrough and mean plasma AUC24 versus dose ([1]; Part A Days 14 and 28, 80 to 160 mg QD): generally increased proportionately with dose
- median Tmax ([1]; Part A Days 14 and 28, maintenance 80 to 160 mg QD): 0.5 to 2.0 h
- Tmax ([1]; male, human, plasma, oral, Part A Day 1, load dose 320 mg, across cohorts, read-out: median Tmax): 1 h
- half-life ([1]; male, human, plasma, oral, Part A Day 28, across cohorts, read-out: mean plasma T1/2): 66.5 to 78.1 h
- suppression of serum LH and testosterone during the second week (serum testosterone; 20 mg QD, 14 days): insufficient in maintaining adequate suppression
- castration outcome (serum testosterone; 40 mg QD, 28 days): ineffective in maintaining castration between Days 14 and 28
- castration outcome (serum testosterone; 60 mg QD, 28 days): intermediate to those of 40 and 80 mg
- time to reach castrate level (serum testosterone; 80 mg once daily): up to 21 days
- castration outcome (serum testosterone; 320 mg day 1, 160 mg day 2, 40 mg day 3 to 28): did not maintain castrate level
- castration outcome (serum testosterone; 360 mg Day 1 and 40 mg day 2 to 14): rapid castration level and sustained castration level
- time to castrate levels (<50 ng/dL) (serum testosterone; 360 mg single dose): ≤ 24 h
- effective medical castration (serum testosterone; 40 to 180 mg daily (14 days) and 80 to 160 mg daily (28 days)): consistently achieved
- profound castration threshold (average serum testosterone <0.69 nmol/L) (serum testosterone; 14 days at 40, 80 and 180 mg): achieved
- castration during third and fourth weeks (serum testosterone; 28 days, 160 mg (Part 3) and 80 mg (Part 4)): effective at achieving medical (<1.73 nmol/L) and profound (<0.69 nmol/L) castration
- mean serum testosterone at end of 16 days (serum testosterone; Part 2, 80 mg): 0.3565 nmol/L
- mean serum testosterone at end of 16 days (serum testosterone; Part 2, 180 mg): 0.4320 nmol/L
- minimal fully effective / recommended maintenance dose for sustained medical castration (serum testosterone; in vivo): ≥ 80 mg QD
- effective medical castration (serum testosterone; maintenance doses of 80, 160 and 180 mg QD): consistently achieved
- duration of mean serum testosterone suppression (serum testosterone; single doses of 80, 120, 180 and 360 mg): maintained through 36 hours postdose
- Acute coronary syndrome, Grade ≥3 ([2]; 80 mg QD): 0 n (%)
- Death (Table 7) ([2]; 80 mg QD): 1 (2) n (%)
- Death, Grade ≥3 (Table 8) ([2]; 80 mg QD): 0 n (%)
- Sudden death, Grade ≥3 ([2]; 80 mg QD): 0 n (%)
- Acute coronary syndrome, Grade ≥3 ([2]; 120 mg QD): 1 (2) n (%)
- Death (Table 7) ([2]; 120 mg QD): 0 (0) n (%)
- Death, Grade ≥3 (Table 8) ([2]; 120 mg QD): 1 (2) n (%)
- Sudden death, Grade ≥3 ([2]; 120 mg QD): 1 (2) n (%)
- overall safety profile ([2]; in vivo): appeared similar to that seen in the smaller observational leuprorelin cohort
